How the values were obtained:
DNA polymerases = experiment: Primer extension with several different DNA polymerases, template directing dATP, dATP, dATP, dGTP (FIG. 12); type: biochemical; conditions: only the indicated nucleotide, 100 μM, 30 minutes
Experimental: Different Polymerases React Differently to the ANS-γ-modified Nucleotides: primer extension reactions were performed to determine the ability of various polymerases to incorporate γ-tagged dNTPs during DNA polymerization. Control reactions contained natural dNTPs to monitor for template-directed nucleotide incorporation as well as for misincorporation as shown in FIG. 12. The reactions were performed in the appropriate buffer and contained the specified polymerase, primer/template duplex (radiolabeled ‘TOP’ primer annealed to ‘BOT-3TC’ template), and only the indicated dNTP. The reactions were carried out at room temperature or at 37° C. for 30 minutes and were stopped by the addition of […]. The volume of the reaction was then reduced to approximately 2-4 μL, loading dye was added and the polymerization products were electrophoresed through a 20% denaturing polyacrylamide gel. Arrows indicate the position of the free labeled ‘TOP’. Asterisks indicate 3-base extension.
Primer extension experiments were performed with several different DNA polymerases to determine whether any of them could incorporate the ANS-γ-phosphate modified nucleotides (FIG. 12). These experiments were performed by incubating the indicated polymerase in appropriate extension buffer, 100 μM ANS-γ-modified dATP, and a 5′-^32P end-labeled primer annealed to a template that directed sequential incorporation of dATP, dATP, dATP dGTP. Positive and negative control reactions containing natural dATP or dGTP, respectively, were run in parallel to monitor template-directed nucleotide incorporation or mis-incorporation. Reactions containing dATP should produce 3-base extension products, whereas those containing dGTP should not produce extended products (due to the absence of dATP). No products longer than 3-bases should result, since no reaction contained more than one nucleotide type. […] Reaction products were heat denatured, loaded onto a 20% denaturing polyacrylamide gel, size-separated (2400 V; 1 hour), and detected via phosphorimaging.

Taq DNA polymerase = biological target: T1, Taq DNA polymerase (Thermus aquaticus, UniProt P19821); experiment: Primer extension assay with a single nucleotide, TOP primer/BOT template duplexes (FIG. 1); type: biochemical; conditions: for DNA strand extension and misincorporation on a template with multiple Ts: template BOT-3TC, lanes 10, 11
T1 construct: purchased Promega Corporation
Experimental: The ability of a commercially available polymerase to incorporate the novel dNTPs synthesized was monitored using primer extension assays.
This first example illustrates the incorporation of ANS-γ-phosphate dATP to produce extended DNA products from primer/template duplexes. The reactions were carried out in extension buffer and the resulting radiolabeled products were size separated on a 20% denaturing polyacrylamide gel. Data were collected using a phosphorimaging system. Referring now FIG. 1, Lane 1 contained 5′ radiolabeled ‘TOP’ probe in extension buffer. Lane 2 contained Taq DNA polymerase, 50 μM dGTP incubated with a DNA duplex (radiolabeled TOP with excess ‘BOT-Sau’). Lane 3 contained Taq DNA polymerase, 50 μM dATP incubated with a DNA duplex (radiolabeled TOP with excess ‘BOT-Sau’). Lane 4 contained Taq DNA polymerase, 50 μM ANS-γ-dATP incubated with a DNA duplex (radiolabeled TOP with excess ‘BOT-Sau’). Lane 5 contained Taq DNA polymerase, 50 μM dGTP incubated with a DNA duplex (radiolabeled TOP with excess ‘BOT-TC’). Lane 6 contained spill-over from lane 5. Lane 7 contained Taq DNA polymerase, 50 μM dATP incubated with a DNA duplex (radiolabeled TOP with excess ‘BOT-TC’). Lane 8 contained Taq DNA polymerase, 50 μM ANS-γ-dATP incubated with a DNA duplex (radiolabeled TOP with excess ‘BOT-TC’). Lane 9 contained Taq DNA polymerase, 50 μM dGTP incubated with a DNA duplex (radiolabeled TOP with excess ‘BOT-3TC’). Lane 10 contained Taq DNA polymerase, 50 μM dATP incubated with a DNA duplex (radiolabeled TOP with excess ‘BOT-3TC’). Lane 11 contained Taq DNA polymerase, ANS-γ-dATP incubated with a DNA duplex (radiolabeled TOP with excess ‘BOT-3TC’). Lane 12 contained 5′ radiolabeled ‘TOP’ probe in extension buffer. Lane 13 contained 5′ radiolabeled ‘TOP’ probe and Taq DNA polymerase in extension buffer.
In these experiments, Taq DNA polymerase (2.5 units/reaction; Promega Corporation) was incubated in polymerase reaction buffer with 10,000 cpm of 5′-^32P end-labeled ‘TOP’ primer, 10 ng of the indicated single-stranded template, and the specified dNTP. The sequences of the oligonucleotides are shown (Table 1). Extension reactions were incubated for 30 minutes, and terminated by the addition of 1 µl of 0.5 M EDTA. The reactions were lyophilized and resuspended in 3.5 µl of sequencing loading buffer. Reaction products were heat denatured, loaded onto a 20% denaturing polyacrylamide gel, size-separated, and quantified using a phosphorimaging system (Fuji Medical Systems, Inc.).

[1] = template BOT-3TC (three A's to be incorporated), lanes 9-11
[2] = template BOT-Sau (first incorporated base should be dGTP), 50 μM nucleotide, lanes 2-4
[3] = template BOT-TC (single A to be incorporated), 50 μM nucleotide, lanes 5-8

T1 sequence (P19821 whole entry): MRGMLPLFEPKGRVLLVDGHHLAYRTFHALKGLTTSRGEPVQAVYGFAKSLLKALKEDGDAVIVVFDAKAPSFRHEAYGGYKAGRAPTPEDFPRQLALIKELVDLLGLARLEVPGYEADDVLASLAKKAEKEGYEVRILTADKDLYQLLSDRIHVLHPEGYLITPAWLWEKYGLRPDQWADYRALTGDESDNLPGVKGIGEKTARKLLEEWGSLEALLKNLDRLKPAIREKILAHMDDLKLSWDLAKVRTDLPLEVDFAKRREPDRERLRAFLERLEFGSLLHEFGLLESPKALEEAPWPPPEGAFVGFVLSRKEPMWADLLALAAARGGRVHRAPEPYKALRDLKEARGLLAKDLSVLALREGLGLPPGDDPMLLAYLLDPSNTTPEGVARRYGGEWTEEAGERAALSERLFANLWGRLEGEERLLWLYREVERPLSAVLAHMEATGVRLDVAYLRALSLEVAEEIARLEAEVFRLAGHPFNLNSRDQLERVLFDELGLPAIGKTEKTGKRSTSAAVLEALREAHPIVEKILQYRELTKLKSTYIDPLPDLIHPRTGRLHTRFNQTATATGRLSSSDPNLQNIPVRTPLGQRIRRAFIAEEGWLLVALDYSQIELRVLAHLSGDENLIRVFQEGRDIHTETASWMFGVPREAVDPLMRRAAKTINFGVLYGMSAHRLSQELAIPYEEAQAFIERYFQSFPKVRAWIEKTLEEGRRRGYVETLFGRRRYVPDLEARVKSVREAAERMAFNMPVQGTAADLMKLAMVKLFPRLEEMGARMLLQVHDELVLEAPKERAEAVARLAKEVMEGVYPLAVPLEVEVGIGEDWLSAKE

Row | Compound | extension products formed (DNA polymerases) | Percent Correct (Taq DNA polymerase; [1]) [%] | Percent Mis-Extended (Taq DNA polymerase; [1]) [%] | Total Percent Extended (Taq DNA polymerase; [1]) [%] | DNA strand extension and misincorporation on a template with multiple Ts (Taq DNA polymerase) | Percent Correct (Taq DNA polymerase; [2]) [%] | Percent Mis-Extended (Taq DNA polymerase; [2]) [%] | Total Percent Extended (Taq DNA polymerase; [2]) [%] | Percent Correct (Taq DNA polymerase; [3]) [%] | Percent Mis-Extended (Taq DNA polymerase; [3]) [%] | Total Percent Extended (Taq DNA polymerase; [3]) [%] | percent extension of the TOP primer (template-directed single base) (Taq DNA polymerase; template BOT-TC, first incorporated base should be dATP, lanes 7, 8) [%] | extension products misextended opposite a template C (Taq DNA polymerase; template BOT-TC, lane 7, percent of the extension products) [%] | misextended products further extended by the enzyme's terminal transferase activity (Taq DNA polymerase; template BOT-TC, lane 7, percent of the misextended products) [%] | decrease in misextensions, tagged nucleotide versus dATP (Taq DNA polymerase; G is to be incorporated, dATP the only nucleotide in the reaction medium) [fold] | decrease in misextensions, tagged nucleotide versus dATP (Taq DNA polymerase; a single A is to be incorporated) [fold] | non-specific, single-base extension (Taq DNA polymerase; template BOT-Sau, first incorporated base should be dGTP (not added), lane 4 vs lane 1) | decrease in misextensions, tagged nucleotide versus dATP (Taq DNA polymerase; three A's are to be incorporated) [fold]
1 | Nc1ncnc2c1ncn2[C@H]1C[C@H](O)[C@@H](COP(=O)(O)OP(=O)(O)OP(=O)(O)O)O1 [dATP] | increased amounts of mis-extended products | 27.11 | 54.92 | 82.03 | frequently misincorporated opposite a template C | 61.99 | 38.01 | 38.01 | 15.24 | 69.01 | 84.25 | 75 | 60 | 34 |  |  |  | 
2 | Nc1nc2c(ncn2[C@H]2C[C@H](O)[C@@H](COP(=O)(O)OP(=O)(O)OP(=O)(O)O)O2)c(=O)[nH]1 [dGTP] | increased amounts of mis-extended products | 32.20 | 67.80 | 67.80 |  | 52.99 | 19.97 | 72.97 | 24.99 | 75.01 | 75.01 |  |  |  |  |  |  | 
3 | ANS γ-phosphoamide dATP [ANS-γ-dATP] | expected 3-base extension products accumulate | 73.43 | 3.87 | 77.31 | multiple modified nucleotides are incorporated | 87.43 | 12.57 | 12.57 | 71.14 | 6.51 | 77.64 |  |  |  | ~3 | ~11 | very little non-specific, single-base extension | ~14
